Like-named read-outs stand apart in the source and are kept apart here. Peptide text beside a SMILES is read from it. * marks the point of attachment. X1 = CC(C)CCCCCCCCCCCCC(=O)*
Key:
[1] = Critical micelle concentration by tensiometer; assay type: physicochemical; conditions: surface tension by tensiometer at room temperature, 0.1 to 1000 μg/ml, mean of triplicate experiments
Experimental: Collapse Drop Assay (CDA) was performed as mentioned earlier ([Sharma et al., 2020]). To a well of 96 well microtiter plate, 2 μl mineral oil was added and equilibrated at 37°C for 24 h. Purified lipopeptide (5 μl of 10 μg/ml stock) was applied to the top of oil droplet and its shape was observed after 1 min with a magnifying glass for collapse and spread due to reduction in surface tension. Water and triton X-100 served as controls ([Youssef et al., 2004]). To determine critical micelle concentration (CMC), different concentrations of purified lipopeptides were prepared and surface tension was measured on a tensiometer (KRUSS K10T, Germany) at room temperature. The values for CMC were estimated by plotting surface tension as a function of concentration of lipopeptides. A point of intersection was located between the pre and post CMC data plot. The mean value of triplicate experiments was used to increase the accuracy. Concentrations ranging from 0.1 to 1000 μg/ml were used to determine surface tension on a tensiometer.

[2] = system: S. aureus MTCC 1430; test: Time kill assay; assay type: cell-based, Staphylococcus aureus; conditions: in PBS, CFU count
Experimental: (§1) Killing kinetics of purified compounds was performed using cells of S. aureus MTCC 1430, V. cholerae MTCC 3904, and C. albicans MTCC 183. Test strains were grown to obtain OD between 0.2 and 0.3 (OD 600 nm), centrifuged, and washed thrice with sterile PBS. Pellets were suspended in PBS and treated with different concentrations of active compounds. Cells after treatment were washed, resuspended, and serially diluted cell suspensions were plated on NA plates. After overnight incubation at 37°C, CFU were recorded ([Singh et al., 2021]).

[3] = system: C. albicans MTCC 183; test: Time kill assay; assay type: cell-based, Candida albicans; conditions: for Time to complete killing: C. albicans MTCC 183, 5X MIC, in PBS, CFU count
Experimental: as §1

[4] = system: S. aureus MTCC 1430; test: TLC-bioautography assay; assay type: cell-based, Staphylococcus aureus; conditions: 10 μg/ml loaded on TLC silica gel; overlay on NA, 24 h at 37°C
Experimental: Overlay thin-layer chromatography (TLC)-bioautography assay was used to determine the antimicrobial activity of the purified antimicrobial compounds ([Wedge and Nagle, 2000]). For bioautography, the antimicrobial compounds (10 μg/ml) were loaded on TLC silica gel plates in duplicates and were developed in one dimension using a solvent system containing chloroform: […]: water (65:12:4 v/v). TLC plate was cut into two vertical parts after running. One part of the TLC was used for direct detection of antimicrobial activity by overlaying it on NA containing S. aureus MTCC 1430 (about 10^6 cells ml^–1). After 1 h diffusion at 4°C, the TLC silica plate was removed and the NA plate was incubated for 24 h at 37°C. Other part of the TLC was sprayed with phosphomolybdic acid as a staining reagent for lipids.

[5] = system: L. monocytogenes MTCC 839; assay type: cell-based, Listeria monocytogenes
Experimental: The antimicrobial activity of HPLC purified compounds was determined against various test strains including S. aureus MTCC 1430, Vibrio cholera MTCC 3904, Bacillus subtilis MTCC 121, Listeria monocytogenes MTCC 839, C. albicans MTCC 183, C. albicans MTCC 1637, C. albicans MTCC 227, C. tropicalis MTCC 184, C. glabrata MTCC 3019, and C. inconspicua MTCC 1074. Antimicrobial activity was also tested against clinical Candida strains and phytopathogenic fungi viz. Fusarium moniliforme MTCC 158, Alternaria brassicicola MTCC 2102 and Colletotrichum acutatum MTCC 1037. Bacterial and Candida test strains were grown in NB and yeast malt broth (YMB), respectively. Fungal test strains were grown in potato dextrose broth (PDB). Minimum inhibitory concentrations (MICs) of purified compounds were evaluated against test organisms by using a microtiter plate dilution assay. Mid-log-phase test strains (5 × 10^5 CFU/ml) were incubated in a 96-well plate with different concentrations of the lipopeptides for 24–48 h at 37°C (final volume of 200 μl). OD was measured at 600 nm after 24 and 48 h for bacteria and yeast, respectively, using an ELISA microplate reader (Thermo Scientific, United States). MIC against phytopathogenic fungi was determined using the 96-well microtiter plate method ([Sharma et al., 2020]).

[6] = system: A. brassicicola MTCC 2102; test: Protection of tomato slices and grapes from fungal spores; design: species or system Alternaria brassicicola; conditions: 500 μl of 2 mg/ml lipopeptide, then 50 μl spore suspension (10^7 conidia per ml); 25°C, 4 days; three replicates
Experimental: The surface of the tomatoes and grapes was sterilized with 5% NaOCl for 5 min and rinsed three times with plenty of sterile water. After sterilization, tomatoes were cut into slices and wounds of 3 mm were inflicted with a sterile scalpel on the surface of the grapes. Tomato slices and grapes were divided into four groups. Contents of group 1 were treated with water only (negative control). Contents of group 2 were treated with 50 μl of a spore suspension (spores 10^7 conidia per ml) of A. brassicicola MTCC 2102 (positive control without treatment). Contents of group 3 were first treated with 500 μl of 2 mg/ml solution of purified lipopeptides separately and after adsorption of lipopeptides, fungal spores were added. Contents of the fourth group were treated with purified lipopeptides only without addition of fungal spores. Tomato slices and grapes from all four groups were incubated at 25°C under controlled humidity conditions for 4 days and observed. Each treatment was performed with three biological and technical replicates.

Compound	CMC (critical micelle concentration) [1] [µg/mL]	Time to complete reduction in population ([2]; S. aureus MTCC 1430, 1X MIC) [min]	Time to complete reduction in population ([2]; S. aureus MTCC 1430, 2X MIC) [min]	Reduction in growth ([3]; C. albicans MTCC 183, 1X MIC, 4 h) [log]	Time to complete killing [3] [h]	Inhibition of S. aureus MTCC 1430 in TLC-based bioautography [4]	MIC value ([5]; MTCC 839, 24 h) [µg/mL]	Fungal growth on the surface of treated tomato and grape slices inoculated with spores [6]	Complete killing of cells within 4 h ([3]; C. albicans MTCC 183, 1X MIC)	Complete killing of cells within 4 h ([3]; C. albicans MTCC 183, 2X MIC)	MIC value ([5]; L. monocytogenes MTCC 839, NB, 5 × 10^5 CFU/ml, 37°C, OD 600 nm after 24 h, 10–550 μg/ml in 5 μg/ml increments) [µg/mL]
CC(C)CCCCCCCCCCCCC(=O)N[C@H](C(=O)NCC(=O)N[C@@H](C)C(=O)N[C@@H](CO)C(=O)N[C@@H](Cc1c[nH]cn1)C(=O)N[C@@H](CCC(N)=O)C(=O)N[C@@H](CCC(N)=O)C(=O)O)[C@@H](C)O [ILL] (X1-TGASHQQ-OH; N-terminus assumed)	90	≤ 60	≤ 30	2	4	inhibited S. aureus MTCC 1430	200 to 220	no fungal growth	–	–	–
Dhb-Tyr-Orn-Ile-Val-Val-Lys-Val-Leu-Asp-Val-Glu [BLL, bogorol like lipopeptide purified from Brevibacillus sp. strain SKDU10; 12 amino acids and C17 hydroxy fatty acid side chain]	110	≤ 30	≤ 30	–	≤ 4	active against S. aureus MTCC 1430	–	no fungal growth	not observed	not observed	230 to 240

Source: paper PMC8589628, “Characterization and Antimicrobial Studies of Iturin-Like and Bogorol-Like Lipopeptides From Brevibacillus spp. Strains GI9 and SKDU10” (Frontiers in Microbiology, 2021)
